Assay results published in the NIST ThermoML archive (doi:10.1016/j.jct.2018.02.022).

Assay: xn = mol fraction of the nth substance listed
Details: 92.3 kPa, Liquid; for viscosity: Concentric cylinders viscometry; for speed of sound: Frequency=3 MHz, Single path-length method; for mass density: Vibrating tube method

OCCO [1,2-ethanediol] + O
Details	mass density, 303.15 K [kg/m3]	mass density, 308.15 K [kg/m3]	speed of sound, 303.15 K [m/s]	speed of sound, 308.15 K [m/s]	viscosity, 303.15 K [mPa·s]	viscosity, 308.15 K [mPa·s]
x1 = 0.0101	1000.04	998.43	1523.1	1532.7	–	–
x1 = 0.0201	1004	1002.32	1536.3	1544.8	–	–
x1 = 0.0302	1007.88	1006.13	1549.1	1556.6	–	–
x1 = 0.0407	1011.76	1009.9	1561.7	1568.1	–	–
x1 = 0.0494	1014.98	1013.02	–	–	1.164	1.059
x1 = 0.0506	1015.24	1013.36	1573	1578.4	–	–
x1 = 0.0605	1018.73	1016.68	1583.6	1588	–	–
x1 = 0.0704	1022.12	1019.92	1594	1597.4	–	–
x1 = 0.0801	1025.1	1022.9	1602.9	1605.7	–	–
x1 = 0.0905	1028.31	1026.05	1612.5	1614.3	–	–
x1 = 0.0986	1030.68	1028.37	–	–	1.555	1.38
x1 = 0.0997	1031.05	1028.71	1620.2	1621.3	–	–
x1 = 0.1483	1043.73	1041.14	–	–	1.99	1.741
x1 = 0.1493	1044.06	1041.45	1654.1	1652	–	–
x1 = 0.1985	1054.47	1051.74	1676.9	1672.2	–	–
x1 = 0.2072	1056.16	1053.32	–	–	2.564	2.226
x1 = 0.2466	1063	1060.02	–	–	2.965	2.572
x1 = 0.2487	1063.38	1060.37	1690.5	1684.2	–	–
x1 = 0.298	1070.45	1067.33	–	–	3.541	3.066
x1 = 0.2998	1070.7	1067.57	1698.3	1690.6	–	–
x1 = 0.3318	1074.59	1071.38	1700.5	1692.2	–	–
x1 = 0.3399	1075.52	1072.31	–	–	4.029	3.48
x1 = 0.3921	1080.8	1077.51	–	–	4.67	4.026
x1 = 0.3981	1081.34	1077.99	1701.1	1691.7	–	–
x1 = 0.4446	1085.21	1081.86	–	–	5.349	4.605
x1 = 0.4521	1085.69	1082.37	1698.9	1688.8	–	–
x1 = 0.4934	–	1085.26	1695.7	1685.2	–	–
x1 = 0.5007	–	1085.73	–	–	6.109	5.245
x1 = 0.5485	1091.97	–	–	–	6.771	5.811
x1 = 0.552	1092.19	–	1690.2	1679.4	–	–
x1 = 0.5846	1093.94	1090.48	1686.7	1675.8	–	–
x1 = 0.6004	1094.63	1091.17	–	–	7.519	6.445
x1 = 0.6451	1096.63	1093.16	–	–	8.173	7.002
x1 = 0.6481	1096.77	1093.29	1679.9	1668.8	–	–
x1 = 0.6773	1097.96	1094.48	1676.6	1665.3	–	–
x1 = 0.7012	1098.83	1095.34	–	–	9.085	7.725
x1 = 0.7421	1100.21	1096.71	1669.4	1658	–	–
x1 = 0.7435	1100.29	1096.79	–	–	9.808	8.27
x1 = 0.7811	1101.44	1097.94	1665	1653.6	–	–
x1 = 0.7907	1101.74	1098.23	–	–	10.55	8.857
x1 = 0.8497	–	1099.81	1657.7	1646.1	–	–
x1 = 0.8505	–	1099.84	–	–	11.54	9.617
x1 = 0.89	1104.3	1100.78	–	–	12.15	10.11
x1 = 0.9002	1104.55	1101.03	1652.6	1640.9	–	–
x1 = 0.9059	1104.67	1101.15	1652.1	1640.4	–	–
x1 = 0.912	1104.78	1101.26	1651.6	1639.9	–	–
x1 = 0.9299	1105.19	1101.66	1649.8	1638.1	–	–
x1 = 0.9413	1105.43	1101.91	1648.7	1637	–	–
x1 = 0.9495	1105.62	1102.1	1647.8	1636.1	–	–
x1 = 0.9532	1105.68	1102.16	–	–	13.12	10.89
x1 = 0.9546	1105.72	1102.2	1647.5	1635.8	–	–
x1 = 0.9681	1105.98	1102.46	1646.3	1634.6	–	–
x1 = 0.9789	1106.18	–	1645.4	1633.6	–	–
x1 = 0.9893	1106.39	–	1644.3	1632.5	–	–
x1 = 1	1106.71	–	1642.9	1631.2	13.87	11.48
